Assay results: patent US7687515B2, “6-phenyl-1H-imidazo[4,5-c]pyridine-4-carbonitrile derivatives” (priority 2006, dated 2010)
pIC50: −log10 of the molar value.

Target: recombinant human Cathepsin S (Homo sapiens, UniProt P25774)
Assay: Cathepsin S assay: inhibition of recombinant human Cathepsin S (Z-Val-Val-Arg-AMC fluorescence)
Assay type: biochemical
Procedure: Cathepsin S Assay Procedure
25 μl of a 2 mg/l solution of activated recombinant human cathepsin S, in assay buffer, is then added to the well, yielding a final inhibitor concentration of 10 μM.
Enzyme activity is determined by measuring the fluorescence of the liberated aminomethylcoumarin at […] using 390 nm excitation, at 20 minutes. Percentage enzyme activity is calculated by comparison of this activity to that of a solution containing no inhibitor.

Sequence of recombinant human Cathepsin S (P25774 115-331): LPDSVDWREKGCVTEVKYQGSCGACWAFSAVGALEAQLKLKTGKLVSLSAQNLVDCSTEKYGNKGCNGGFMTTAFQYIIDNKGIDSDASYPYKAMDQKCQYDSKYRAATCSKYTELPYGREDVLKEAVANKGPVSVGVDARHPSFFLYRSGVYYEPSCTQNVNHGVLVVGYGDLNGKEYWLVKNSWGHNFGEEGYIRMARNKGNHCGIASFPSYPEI

| SMILES | pIC50 |
| --- | --- |
| CCOc1ccc(-c2cc3[nH]c(CNCCO)nc3c(C#N)n2)cc1C(F)(F)F [Example 11h, 6-(4-Ethoxy-3-trifluoromethyl-phenyl)-2-[(2-hydroxy-ethylamino)-methyl]-1H-imidazo[4,5-c]pyridine-4-carbonitrile] | > 7.00 |
| CCOc1ccc(-c2cc3c(ncn3CCCN(C)C)c(C#N)n2)cc1C(F)(F)F [Example 10f, 1-(3-Dimethylamino-propyl)-6-(4-ethoxy-3-trifluoromethyl-phenyl)-1H-imidazo-[4,5-c]pyridine-4-carbonitrile] | > 7.00 |
| CCOc1ccc(-c2cc3[nH]c(CN4CCN(C)CC4)nc3c(C#N)n2)cc1C(F)(F)F [Example 11a, 6-(4-Ethoxy-3-trifluoromethyl-phenyl)-2-(4-methyl-piperazin-1-ylmethyl)-1H-imidazo-[4,5-c]pyridine-4-carbonitrile] | > 7.00 |
| CCOc1ccc(-c2cc3[nH]c(CN4CCN(CCOC)CC4)nc3c(C#N)n2)cc1C(F)(F)F [Example 13i, 6-(4-Ethoxy-3-trifluoromethyl-phenyl)-2-[4-(2-methoxy-ethyl)-piperazin-1-yl-methyl]-1H-imidazo[4,5-c]pyridine-4-carbonitrile] | > 7.00 |
| CCOc1ccc(-c2cc3c(ncn3CC(=O)O)c(C#N)n2)cc1C(F)(F)F [Example 3, [4-Cyano-6-(4-ethoxy-3-trifluoromethyl-phenyl)-imidazo[4,5-c]pyridin-1-yl]-acetic acid] | > 7.00 |
| CCOc1ccc(-c2cc3[nH]cnc3c(C#N)n2)cc1C(F)(F)F [Example 1, 6-(4-Ethoxy-3-trifluoromethyl-phenyl)-1H-imidazo[4.5-c]pyridine-4-carbonitrile] | > 7.00 |
| CCOc1ccc(-c2cc3c(ncn3CCN3CCCCC3)c(C#N)n2)cc1C(F)(F)F [Example 9d, 6-(4-Ethoxy-3-trifluoromethyl-phenyl)-1-(2-piperidin-1-yl-ethyl)-1H-imidazo[4,5-c]-pyridine-4-carbonitrile] | > 7.00 |
| CCOc1ccc(-c2cc3[nH]c(CN4CNC(=O)C4)nc3c(C#N)n2)cc1C(F)(F)F [Example 13d, 6-(4-Ethoxy-3-trifluoromethyl-phenyl)-2-(4-oxo-imidazolidin-1-ylmethyl)-1H-imidazo[4,5-c]pyridine-4-carbonitrile] | > 7.00 |
| CCOc1ccc(-c2cc3[nH]c(CN4CCNC(=O)C4)nc3c(C#N)n2)cc1C(F)(F)F [Example 5d, 6-(4-Ethoxy-3-trifluoromethyl-phenyl)-2-(3-oxo-piperazine-1-ylmethyl)-1H-imidazo[4,5,c]pyridine-4-carbonitrile] | > 7.00 |
| CCOc1ccc(-c2cc3c(ncn3CCCN3CCOCC3)c(C#N)n2)cc1C(F)(F)F [Example 10a, 6-(4-Ethoxy-3-trifluoromethyl-phenyl)-1-(3-morpholin-4-yl-propyl)-1H-imidazo[4,5-c]pyridine-4-carbonitrile] | > 7.00 |
| CCOc1ccc(-c2cc3c(ncn3CCN3CCOCC3)c(C#N)n2)cc1C(F)(F)F [Example 9a, 6-(4-Ethoxy-3-trifluoromethyl-phenyl)-1-(2-morpholin-4-yl-ethyl)-1H-imidazo[4,5-c]pyridine-4-carbonitrile] | > 7.00 |
| CCOc1ccc(-c2cc3c(ncn3CCN(C)C)c(C#N)n2)cc1C(F)(F)F [Example 9f, 1-(2-Dimethylamino-ethyl)-6-(4-ethoxy-3-trifluoromethyl-phenyl)-1H-imidazo [4,5-c]pyridine-4-carbonitrile] | > 7.00 |
